{"source": "patent US11197908B2", "about": "“Peptoids and methods for attenuating inflammatory response” (THE BOARD OF TRUSTEES OF THE UNIVERSITY OF ARKANSAS, priority 2018, dated 2021)", "key": {"IL-6": {"test_system": "IL-6", "assay": "IL-6 expression in previously LPS-stimulated THP1 macrophages (ELISA)", "format": "cell-based, human", "conditions": "25, 5, 1 μM added after 48 h of 2 ng/mL LPS, additional 24 h", "description": "(§1) THP-1 monocytes were differentiated as described above 20. Upon differentiation, these cells were then incubated (48 h) with media containing low-dose (2 ng/mL) LPS as a chronic pro-inflammatory stimulus 21. Following incubation, JPT1a or JPT1 was added for final concentrations of 25, 5, and 1 μM 22, and cells were incubated an additional 24 h. Treatment with 2 ng/mL LPS alone served as a positive control, while treatment with an equivalent volume of buffer diluted into media served as the vehicle. Media was collected for later assessment of cytokines via ELISA as described above 23. Cells were fixed and stained for RAGE, phalloidin (cytoplasmic marker), and DAPI (nuclear marker) 24. Each channel was imaged with a Zeiss LSM 510 META Confocal Scanning Laser Microscope using a plan-neofluar 40×/1.3 oil DIC immersion objective; three of these multi-channel images were obtained from each slide in each experiment. 25 All multi-channel images were converted to TIFF file format via ImageJ64 software for quantitative image analysis using a custom subroutine written in Matlab™ software to obtain the average RAGE expression per volume of cells, and the data generated was assessed for statistical significance using GraphPad Prism 7.0 software 26.\n(§2) As shown in FIGS. 4B-4D, THP1 macrophages were treated with low-dose LPS at 2 ng/mL. […]"}, "IL-8": {"test_system": "IL-8", "assay": "IL-8 expression in previously LPS-stimulated THP1 macrophages (ELISA)", "format": "cell-based, human", "conditions": "25, 5, 1 μM added after 48 h of 2 ng/mL LPS, additional 24 h", "description": "as §1, §2"}, "RAGE": {"test_system": "RAGE", "assay": "Aβ1-42 oligomer induced RAGE expression in THP1 macrophages (confocal imaging)", "format": "cell-based, human", "conditions": "3 days", "description": "Aβ1-42 oligomers were prepared at 15 μM through the addition of 12 mM phosphate containing […] to DMSO-solubilized AP. After 15-minute incubation, oligomerization was halted and used to immediately prepare treatments of 10 nM Aβ1-42 oligomers alone (positive control) or in the presence of the peptoid at concentrations ranging from 1 μM to 25 μM. Treatments were applied to THP1 macrophages for 3 days prior to cell fixation and staining. Treatment with 10 nM Aβ1-42 oligomers alone served as a positive control, while treatment with an equivalent volume of buffer diluted into media served as the vehicle. Treatment with 15 μM JPT1a ensured that JPT1a alone had no effect. Cells were fixed and stained for RAGE, phalloidin (cytoplasmic marker), and DAPI (nuclear marker). […] All multi-channel images were converted to TIFF file format via ImageJ64 software for quantitative image analysis using a custom subroutine written in MATLAB™ software to obtain the average RAGE expression per volume of cells.\nTreatment with an equivalent volume of buffer diluted into media served as the vehicle. Treatment with 25 μM JPT1a in the presence of vehicle assessed the effect of the peptoid alone (black). Images were analyzed via custom MATLAB™ subroutine to determine the average quantity of RAGE present within a given volume of cells. […]"}, "E-cadherin": {"target": "T1, E-cadherin (Homo sapiens, UniProt P12830)", "T1 sequence (P12830 155-882)": "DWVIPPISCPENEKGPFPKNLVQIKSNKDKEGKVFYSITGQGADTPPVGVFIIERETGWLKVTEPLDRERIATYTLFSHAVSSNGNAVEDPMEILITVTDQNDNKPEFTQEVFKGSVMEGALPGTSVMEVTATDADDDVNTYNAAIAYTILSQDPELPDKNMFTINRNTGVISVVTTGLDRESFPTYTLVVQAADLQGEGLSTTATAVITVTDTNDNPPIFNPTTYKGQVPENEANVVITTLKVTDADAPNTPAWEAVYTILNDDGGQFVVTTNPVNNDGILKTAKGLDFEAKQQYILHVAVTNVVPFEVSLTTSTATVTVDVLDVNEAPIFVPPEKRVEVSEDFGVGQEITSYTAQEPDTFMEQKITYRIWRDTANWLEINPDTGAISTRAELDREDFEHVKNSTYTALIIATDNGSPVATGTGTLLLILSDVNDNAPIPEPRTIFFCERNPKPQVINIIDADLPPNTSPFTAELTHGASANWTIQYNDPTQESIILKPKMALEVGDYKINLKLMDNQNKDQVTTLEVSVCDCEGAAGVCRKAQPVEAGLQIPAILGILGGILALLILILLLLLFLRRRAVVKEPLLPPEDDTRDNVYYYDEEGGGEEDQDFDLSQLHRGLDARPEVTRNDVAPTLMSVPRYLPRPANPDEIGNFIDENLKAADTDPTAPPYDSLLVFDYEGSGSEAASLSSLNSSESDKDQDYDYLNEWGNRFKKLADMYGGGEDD", "assay": "E-cadherin binding to JPT1a-coated 96-well plates", "conditions": "plates coated with 500 nM JPT1a; E-cadherin 1 to 500 nM", "description": "As shown in FIGS. 7A-7D, 96-well plates coated with 500 nM JPT1a were treated with concentrations of RAGE (FIG. 7A) or E-cadherin (FIG. 7B) ranging from 1 to 500 nM. Values are reported as the average concentration of bound protein determined from all experiments. Error bars indicate SEM, n=2-5. […] In FIG. 7D, 96-well plates coated with 500 nM JPT1 were treated with concentrations of RAGE ranging from 1 to 350 nM."}, "IL-1β": {"test_system": "IL-1β", "assay": "IL-1β expression in previously LPS-stimulated THP1 macrophages (ELISA)", "format": "cell-based, human", "conditions": "25, 5, 1 μM added after 48 h of 2 ng/mL LPS, additional 24 h", "description": "as §1, §2"}}, "note": "Where a SMILES comes first, the peptide text is derived from it. [ ]: non-standard residue; d: D form. N(1S-Me-propyl)Gly = CC[C@H](C)NCC(=O)O; Nspe = C[C@H](NCC(=O)O)c1ccccc1; Nlys = NCCCCNCC(=O)O"}
{"compound": "CC[C@H](C)N(CC(=O)N(CC(=O)N(CC(=O)N(CC(=O)N(CC(=O)N(CC(=O)N(CC(N)=O)[C@@H](C)c1ccccc1)[C@@H](C)c1ccccc1)[C@@H](C)CC)[C@@H](C)c1ccccc1)[C@@H](C)c1ccccc1)[C@@H](C)CC)C(=O)CNCCCCN", "note": "[JPT1a] (H-[Nlys][N(1S-Me-propyl)Gly][N(1S-Me-propyl)Gly][Nspe][Nspe][N(1S-Me-propyl)Gly][Nspe][Nspe]-NH2)", "values": [{"measurement": "IL-6 production of previously stimulated macrophages", "setting": "IL-6", "value": "does not affect cytokine production"}, {"measurement": "IL-8 production of previously stimulated macrophages", "setting": "IL-8", "value": "does not affect cytokine production"}, {"measurement": "expression of RAGE, JPT1a alone", "setting": "RAGE; 25 μM JPT1a in the presence of vehicle", "value": "does not provoke significant response or upregulation"}, {"measurement": "Aβ1-42 oligomer induced RAGE expression", "setting": "RAGE; JPT1a 25, 10, 5 or 1 μM with 10 nM Aβ1-42 oligomers, fraction of positive control", "value": "dose-dependent reduction"}, {"measurement": "binding to E-cadherin", "setting": "E-cadherin", "value": "absence of binding"}, {"measurement": "IL-1β production of previously stimulated macrophages", "setting": "IL-1β", "value": "does not affect cytokine production"}]}
